For assay [1], the target named is T1, p53 Y220C mutant protein (amino acid residues 94-293) (Homo sapiens, UniProt P04637, Y220C).
T1 construct: p53 Y220C mutant protein (amino acid residues 94-293)
Briefly: Surface Plasmon Resonance (SPR) assay, p53 Y220C Kd_kinetic. Particulars: multi-cycle kinetics, 16 or 20 °C, pH 7.5, 1:1 binding model. As for the experimental part:
SPR experiments are performed on a Biacore 8K instrument. […] Compounds are 2-fold, 7-point serial diluted; the top concentration varies depending on the potency. Compound binding affinities are measured in the multi-cycle kinetics mode, at 30 μL/min flow rate with 60 seconds association time and 120 seconds dissociation time. The running buffer contains 50 mM Tris, pH 7.5, 100 mM NaCl, 1 mM DTT, 0.01% Brij35, 0.05% Tween-20 and 1% DMSO. The assay temperature is maintained at 16 or 20 °C and data are fit into the 1:1 binding model using the Biacore Insight Evaluation software.

Another assay has as its target p53 Y220C (Homo sapiens, UniProt P04637, Y220C). Briefly: Luciferase Reporter Assay, p53 Y220C (NCIH1299 cells with inducible p53 Y220C and p53 response element-luciferase). The assay is classed as cell-based. Particulars: 6 hour compound treatment, read-out: Luc P53 Y220C AC50. As for the experimental part:
Luciferase reporter (Luc) driven by p53 response element (LTV-p53-Luc (SKU #: LTLR007); G&P Biosciences) and inducible p53 Y220C construct (Tet-One inducible expression system; Takara) were stably expressed in NCIH1299 cells by lentiviral transduction. The cells were then used for p53 reporter assay. 5,000 cells were seeded in each well of 384 plate and cultured in 0.5 ug/mL doxycycline (D3072; Sigma) containing medium for 24 hours before compound treatment. After 6 hour of compound treatment, equal volume of One-Glo reagent (E6110; Promega) was added to each well and the plate was incubated for 5 minutes with shaking at room temperature. The luciferase activity was immediately measured with PheraStar microplate reader. Luciferase activity was stimulated by 10 uM of a tool compound as positive control and AC50 was calculated.
Background: Reporter assays use an easily measured gene product as a stand-in for the process of interest.

For a further assay, the system named is NUGC3 cells (p53 Y220C). Briefly: Cell Proliferation Assay (CellTiter-Glo), NUGC3 p53 Y220C. Particulars: Homo sapiens, NUGC-3, 120 h, 5 days, read-out: CTG NUGC3 P53 Y220C IC50. Type of assay: cell-based. As for the experimental part: Inducible p53 Y220C and R273H constructs (Tet-One inducible expression system; Takara) were stably expressed in NCIH1299 cells by lentiviral transduction. NUGC3, A549, BxPC3, T3M4, HuH7, HCC2935, MFE296, NCIH1299, NCIH1299-inducible p53 Y220C, and NCIH1299-inducible p53 R273H cell lines were used for cell proliferation assay. 250-500 cells were seeded in each well of 384 plate and then compounds were dispensed into each well using Echo or Tecan. After 5 days of incubation, equal volume of CellTiter-Glo reagent (G7570; Promega) was added into each well and the plate was incubated at room temperature for 10 minutes with shaking. The luminescent signal was measured by PheraStar microplate reader and IC50 was calculated.

Molecules are shown by their SMILES.

T1 sequence (P04637 94-293, stated change not applied): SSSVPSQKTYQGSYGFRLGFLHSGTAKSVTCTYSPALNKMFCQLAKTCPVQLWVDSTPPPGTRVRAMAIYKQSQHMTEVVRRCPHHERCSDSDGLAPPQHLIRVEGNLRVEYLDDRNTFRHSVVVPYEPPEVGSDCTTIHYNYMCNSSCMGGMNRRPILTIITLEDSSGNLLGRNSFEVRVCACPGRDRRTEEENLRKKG

`CNC(=O)c1cnc(NCc2nc(-c3cc4c(N[C@@H]5CCN(C)C[C@@H]5F)cccn4c3SC(F)(F)F)no2)nc1` [Example 50, 2-({[3-(8-{[(3S,4R)-3-fluoro-1-methylpiperidin-4-yl]amino}-3-[(trifluoromethyl)sulfanyl]indolizin-2-yl)-1,2,4-oxadiazol-5-yl]methyl}amino)-N-methylpyrimidine-5-carboxamide] displayed a Kd in assay [1] below 10 nM. The AC50 at p53 Y220C is below 750 nM. In addition, the IC50 with NUGC3 cells (p53 Y220C) lay in the range of 750 to 1500 nM.
The like results for `CN1CC[C@@H](Nc2cccn3c(SC(F)(F)F)c(-c4noc([C@@H](CO)NC(=O)C5CC5)n4)cc23)[C@@H](F)C1` [Example 53, N-[(1R)-1-[3-(8-{[(3S,4R)-3-fluoro-1-methylpiperidin-4-yl]amino}-3-[(trifluoromethyl)sulfanyl]indolizin-2-yl)-1,2,4-oxadiazol-5-yl]-2-hydroxyethyl]cyclopropanecarboxamide] were, in that order, 10 to 100 nM, at least 3000 nM and at least 3000 nM.
The like results for `CN1CC[C@@H](Nc2cccn3c(SC(F)(F)F)c(-c4noc([C@H](CO)NC(=O)C5CC5)n4)cc23)[C@@H](F)C1` [Example 55, N-[(1S)-1-[3-(8-{[(3S,4R)-3-fluoro-1-methylpiperidin-4-yl]amino}-3-[(trifluoromethyl)sulfanyl]indolizin-2-yl)-1,2,4-oxadiazol-5-yl]-2-hydroxyethyl]cyclopropanecarboxamide] were, in that order, 10 to 100 nM, at least 3000 nM and at least 3000 nM.
The like results for `CN1CC[C@@H](Nc2cccn3c(SC(F)(F)F)c(-c4noc(CNC(=O)[C@H]5COCCN5C)n4)cc23)[C@@H](F)C1` [Example 68, (3R)-N-{[3-(8-{[(3S,4R)-3-fluoro-1-methylpiperidin-4-yl]amino}-3-[(trifluoromethyl)sulfanyl]indolizin-2-yl)-1,2,4-oxadiazol-5-yl]methyl}-4-methylmorpholine-3-carboxamide] were, in that order, 10 to 100 nM, at least 3000 nM and at least 3000 nM.
In turn, `CN1CC[C@@H](Nc2cccn3c(SC(F)(F)F)c(-c4noc(CNC(=O)[C@@H]5COCCN5C)n4)cc23)[C@@H](F)C1` [Example 69, (3S)—N-{[3-(8-{[(3S,4R)-3-fluoro-1-methylpiperidin-4-yl]amino}-3-[(trifluoromethyl)sulfanyl]indolizin-2-yl)-1,2,4-oxadiazol-5-yl]methyl}-4-methylmorpholine-3-carboxamide] registered a Kd in assay [1] of 10 to 100 nM. In addition, the AC50 on p53 Y220C is at least 3000 nM. The IC50 in the assay on NUGC3 cells (p53 Y220C) is at least 3000 nM.
Regarding `CN1CC[C@@H](Nc2cccn3c(SC(F)(F)F)c(-c4noc(CNC(=O)c5cncs5)n4)cc23)[C@@H](F)C1` [Example 70], the Kd in assay [1] is below 10 nM. Besides, at p53 Y220C, the AC50 is below 750 nM. The IC50 in the assay with NUGC3 cells (p53 Y220C) is below 750 nM.
`Cc1ncc(C(=O)NCc2nc(-c3cc4c(N[C@@H]5CCN(C)C[C@@H]5F)cccn4c3SC(F)(F)F)no2)o1` [Example 71] came in with a Kd in assay [1] below 10 nM. On p53 Y220C, the AC50 was below 750 nM. The IC50 with NUGC3 cells (p53 Y220C) is below 750 nM.
The molecule `CN1CC[C@@H](Nc2cccn3c(SC(F)(F)F)c(-c4noc(CNC(=O)c5cnco5)n4)cc23)[C@@H](F)C1` [Example 72] returned a Kd in assay [1] below 10 nM. The concentration at half-maximal activity (AC50) at p53 Y220C was below 750 nM. Moreover, the IC50 in the assay with NUGC3 cells (p53 Y220C) was below 750 nM.
Regarding `CN1CC[C@@H](Nc2cccn3c(SC(F)(F)F)c(-c4noc(CNC(=O)c5cnc[nH]5)n4)cc23)[C@@H](F)C1` [Example 73], the Kd in assay [1] was below 10 nM. Moreover, the AC50 on p53 Y220C is below 750 nM. The IC50 in the assay on NUGC3 cells (p53 Y220C) lay in the range of 750 to 1500 nM.
The matching figures for `CN1CC[C@@H](Nc2cccn3c(SC(F)(F)F)c(-c4noc(CNC(=O)c5ncon5)n4)cc23)[C@@H](F)C1` [Example 74]: below 10 nM, 750 to 1500 nM and 1500 to 3000 nM.
`CN1CC[C@@H](Nc2cccn3c(SC(F)(F)F)c(-c4noc(CNC(=O)c5ncn[nH]5)n4)cc23)[C@@H](F)C1` [Example 75]: the Kd in assay [1] was below 10 nM. The AC50 at p53 Y220C fell in the range of 750 to 1500 nM. Besides, in the assay with NUGC3 cells (p53 Y220C), the IC50 was 750 to 1500 nM.
`CN1CC[C@@H](Nc2cccn3c(SC(F)(F)F)c(-c4noc(CNC(=O)c5ccno5)n4)cc23)[C@@H](F)C1` [Example 76]: the Kd in assay [1] was below 10 nM. On p53 Y220C, the AC50 was below 750 nM. The IC50 in the assay with NUGC3 cells (p53 Y220C) fell in the range of 750 to 1500 nM.
The like results for `CN1CC[C@@H](Nc2cccn3c(SC(F)(F)F)c(-c4noc(CNC(=O)c5cnc(N)o5)n4)cc23)[C@@H](F)C1` [Example 77] were, in that order, below 10 nM, below 750 nM and below 750 nM.
The like results for `CN1CC[C@@H](Nc2cccn3c(SC(F)(F)F)c(-c4noc(CNC(=O)c5ncn(C)n5)n4)cc23)[C@@H](F)C1` [Example 78] were, in that order, below 10 nM, below 750 nM and below 750 nM.
The like results for `CN1CC[C@@H](Nc2cccn3c(SC(F)(F)F)c(-c4noc(CNC(=O)c5cnn(C)n5)n4)cc23)[C@@H](F)C1` [Example 79] were, in that order, below 10 nM, below 750 nM and below 750 nM.
The molecule `CN1CC[C@@H](Nc2cccn3c(SC(F)(F)F)c(-c4noc(CNC(=O)c5cnn[nH]5)n4)cc23)[C@@H](F)C1` [Example 80] gave a Kd in assay [1] below 10 nM. For the same molecule, at p53 Y220C, the AC50 was 1500 to 3000 nM. Further, the IC50 in the assay with NUGC3 cells (p53 Y220C) fell in the range of 1500 to 3000 nM.
Regarding `CN1CC[C@@H](Nc2cccn3c(SC(F)(F)F)c(-c4noc(CNC(=O)c5nnc[nH]5)n4)cc23)[C@@H](F)C1` [Example 83], the IC50 in the assay on NUGC3 cells (p53 Y220C) lay within 750 to 1500 nM.
In assay [1], `CN1CC[C@@H](Nc2cccn3c(SC(F)(F)F)c(-c4noc(CNC(=O)c5ccn(C)c5)n4)cc23)[C@@H](F)C1` [Example 86] showed a Kd below 10 nM. Also, at p53 Y220C, the AC50 was below 750 nM.
In turn, `CN1CC[C@@H](Nc2cccn3c(SC(F)(F)F)c(-c4cc(CNC(=O)C5CC5)no4)cc23)[C@@H](F)C1` [Example 87] displayed a dissociation constant (Kd) in assay [1] below 10 nM. Besides, at p53 Y220C, the AC50 is 750 to 1500 nM.
The matching figures for `CN1CC[C@@H](Nc2cccn3c(SC(F)(F)F)c(-c4cc(CNC(=O)c5cnn(C(C)(C)C)c5)on4)cc23)[C@@H](F)C1` [Example 88]: 10 to 100 nM and below 750 nM.
The matching figures for `CN1CC[C@@H](Nc2cccn3c(SC(F)(F)F)c(-c4cc(CNC(=O)c5cnc(N(C)C)o5)no4)cc23)[C@@H](F)C1` [Example 90]: below 10 nM and below 750 nM.
The matching figures for `CN1CC[C@@H](Nc2cccn3c(SC(F)(F)F)c(-c4noc(CNC(=O)c5noc(N(C)C)n5)n4)cc23)[C@@H](F)C1` [Example 91]: below 10 nM and below 750 nM.
In assay [1], `CN1CC[C@@H](Nc2cccn3c(SC(F)(F)F)c(-c4cc(CNC(=O)c5cnc(N(C)C)s5)no4)cc23)[C@@H](F)C1` [Example 92] returned a Kd below 10 nM. In addition, on p53 Y220C, the AC50 was below 750 nM.
Molecule `CN1CC[C@@H](Nc2cccn3c(SC(F)(F)F)c(-c4noc(CNC(=O)c5ccn(CC(C)(C)O)c5)n4)cc23)[C@@H](F)C1` [Example 95] displayed a Kd in assay [1] below 10 nM. In addition, the AC50 at p53 Y220C is below 750 nM.
Take `CN1CC[C@@H](Nc2cccn3c(SC(F)(F)F)c(-c4noc(CNC(=O)c5ccn(CCF)c5)n4)cc23)[C@@H](F)C1` [Example 96]: the Kd in assay [1] is below 10 nM. The AC50 on p53 Y220C is below 750 nM.
The like results for `COCC1(n2ccc(C(=O)NCc3nc(-c4cc5c(N[C@@H]6CCN(C)C[C@@H]6F)cccn5c4SC(F)(F)F)no3)c2)CC1` [Example 97] were, in that order, below 10 nM and below 750 nM.

Broadly, the Kd is the equilibrium constant for the complex coming apart. By AC50 is commonly meant the concentration giving half of the maximal activity seen. In general, IC50 refers to the concentration that inhibits the measured activity by half.

For the origin of these results see US20260347353A1, “INDOLIZINE DERIVATIVES FOR TREATING CANCER” (Antares Therapeutics, Inc., priority 2022, published 2026).
